Data on one compound can be found in patent publication US12365651B2, “Use of pirfenidone and derivatives for modulation of B lymphocyte activity and organ protection from acute tissue damage” (Washington University, priority 2017, dated 2025).

The subject of experiment [1] is PDICs obtained from thioglycolate-stimulated TIRAP−/− mice. Put plainly: CD86 on CD19+ cells in cultured PDICs from TIRAP−/− mice. To be noted: LPS stimulated cultures. The experiment is classed as cell-based, mouse. The text has this: Noting that prior studies have shown that B cells are activated by engagement of TLR by damage-associated molecular patterns (DAMPs) released by necrotic cells (17), and noting that TLR signaling was present in CD19+CD11b− lymphocytes sorted from DT injured animals but absent in the same cells sorted from DT injured animals treated with Pirfenidone, we focused our in vitro studies on CD19+ cells using lipolysaccharide (a classic TLR4 agonist and a T-independent antigen), as well as necrotic cardiac cell extracts, which we and others have shown signal through TLR4 (18). […] To further explore the role of TLR mediated signaling, we repeated these experiments in PDICs obtained from thioglycolate-stimulated TIRAP−/− mice. […] Importantly, both mechanisms were sensitive to treatment with Pirfenidone (FIG. 10E and FIG. 10F).
Peritoneal derived inflammatory cells (PDICs) were harvested from the peritoneal cavity of thioglycolate-stimulated wild-type and TIRAP−/− deficient mice. PDIC cultures contain an admixture of inflammatory cells, including CD19+ B cells (40). TIRAP deficient mice were a gift from Dr. Ruslan Medzhitov (Yale University, New Haven, CT). PDICs were harvested on day 4 after i.p. injection of 1 ml of thioglycolate medium (Millipore, Billerica, MA, USA). […]

In experiment [2] the test system is peritoneal derived inflammatory cells (PDICs). Put plainly: CD86 on CD19+ cells in cultured peritoneal derived inflammatory cells (PDICs), wild type. To be noted: for number of CD19+ CD86high lymphocytes: 24 h, p<0.001. It is filed as cell-based, mouse. The procedure:
Peritoneal derived inflammatory cells (PDICs) were harvested from the peritoneal cavity of thioglycolate-stimulated wild-type and TIRAP−/− deficient mice. PDIC cultures contain an admixture of inflammatory cells, including CD19+ B cells (40). TIRAP deficient mice were a gift from Dr. Ruslan Medzhitov (Yale University, New Haven, CT). PDICs were harvested on day 4 after i.p. injection of 1 ml of thioglycolate medium (Millipore, Billerica, MA, USA). Mice were euthanized, and the peritoneal cavity was washed 3-4 times with 3 mLs of Dulbecco's modified medium containing 10% fetal calf serum. A 3 mL syringe with an 18-gauge needle was used to inject the peritoneal cavity and retrieve the medium containing PDICs. Harvested cells were centrifuged at 250 g for 5 minutes, re-suspended in 5 mL of media and then filtered through a 40 μm strainer. Cells were plated at ˜1.5 million cells/mL in 12 or 24 well plates. Primary splenic derived B lymphocytes were isolated with the MagniSort Mouse B cell Enrichment Kit (Invitrogen, Carlsbad, CA, USA) according to manufacturer's instruction and plated in 96 well plates at 1 million cells/ml. The purity of isolated B cells was checked by flow cytometry and was >85% in all reported experiments. Both PDICs and primary B lymphocytes were cultured in DMEM with 10% FCS, 1 mM sodium pyruvate, penicillin/streptomycin (GIBCO, 1×), 2 mM L-Glutamine, 10 mM Hepes and 55 μM 2-Mercaptoethanol.
We used LPS-EB ultrapure lipopolysaccharide (InvivoGen, San Diego, CA, USA) or necrotic cell extracts (NCEs) to stimulate the cell cultures. For stimulation with LPS, LPS was added at 100 ng/mL at the time of plating. NCEs were prepared from H9c2 cells, in a similar manner to the protocol described for mouse heart and mouse liver extracts (18). For stimulation, NCEs were added at a final concentration of 10 μg/mL at the time the cells were plated. LPS and NCE stimulation were performed in the presence and absence of Pirfenidone for 24 hours. […]

Take `Cc1ccc(=O)n(-c2ccccc2)c1` [Pirfenidone, 5 methyl-1-phenyl-2-[H] pyridone]: in experiment [1], the “CD19+ CD86high lymphocytes” value is listed as “small but significant (p<0.001) decrease”. In addition, the “LPS induced expression of CD86 on B cells” value in experiment [2] (B lymphocytes from the peritoneum, 24 hours, LPS + 0.5% pirfenidone) was “significantly reduced”. Moreover, the “number of CD19+ CD86high lymphocytes” value in experiment [2] (PDICs stimulated with LPS) and in experiment [2] (PDICs stimulated with cytosolic extracts from necrotic cells) was “significantly attenuated” in each case.
